From US8138188B2, “Melanocortin type 4 receptor agonist piperidinoylpyrrolidines” (Pfizer Inc., priority 2006, dated 2012)

What was measured:
[1] = In vitro metabolism rate determination, human liver microsome (HLM) assay; type: in vitro ADME; settings: human liver microsomes, substrate 1 μM; read-out: HLM (intrinsic clearance)
Text: (§1) In vitro Metabolism Rate Determination (Human Liver Microsome (HLM); Rat Liver Microsome (RLM) Assay)
(§2) Many drugs are metabolised by the cytochrome P450 mono-oxygenase system. This enzyme is found in high concentrations in the liver and is bound to the endoplasmic reticulum of the hepatocyte. The enzyme system can be obtained in semi-purified state by the preparation of the hepatic microsomal fractions. Determining a compound's in vitro half-life in such a system provides a useful indicator of metabolic stability.
(§3) Methodology For In Vitro Rate Determination Using Hepatic & Supermix Microsomes
(§4) The method outlined below is for a total incubation volume of 1.5 ml.
(§5) 1. The following mixture is prepared in a test tube:
(§6) 2. Defrost microsomes at room temperature and add sufficient microsomes to give a final concentration of 0.5 nmol cytochrome P450/ml of incubation e.g. for a 1.5 ml incubation, the volume of microsomes to be added is:
(§7) [formula] 3. Add sufficient MilliQ water to give a total incubation volume of 1.425 ml. 4. Remove 237.5 μl of incubation mix and place in test tube for PNA positive control. Add 2.5 μl of PNA solution, whirlimix, and put tube into a rack in the thermostatically controlled shaking water bath 5. Remove 100 μl for no substrate control and dispense in test tube. Place test tube in a rack in the thermostatically controlled shaking water bath. 6. Add substrate to the incubation. The substrate should be at an initial concentration of 1 μM. The volume of substrate required in the remaining 1.162.5 ml incubation is calculated as follows:
(§8) [formula] • N.B. The volume of organic solvent added should not exceed 0.1% of the total incubation volume. 7. Remove 100 μl of incubation mix into test tube for no cofactor control. Whirlimix and put into a rack in the thermostatically controlled shaking water bath. 8. Pre-incubate the tube containing the incubation mix, also positive control and no cofactor tubes in the thermostatically controlled shaking water bath set at 37° C. for approx 5 min. 9. Add NADP to initiate reaction (75 μl to each 1.162.5 ml incubation mix, 12.5 μl to positive control tube and 5 μl to no substrate tube) and take first time point immediately. The PNA positive control, no cofactor control and no substrate tubes are incubated for the total incubation time. 10. Remove 100 μl aliquots up to 9 different sampling points from 0 to 60 min (usually 0, 3, 5, 10, 15, 20, 30, 45 & 60 min) and terminate reaction. Longer incubation times can be used, but, after 120 min the microsomes deteriorate. The reaction may be terminated by addition of organic solvent, acid or base. At the end of the incubation process the no cofactor and no substrate controls in a similar manner i.e. terminate with the same reagent. 11. PNA Positive Control Procedure: • After the final sample has been taken, remove the positive control and add 1 ml 20% TCA to this tube. Also prepare a tube containing 250 μl of a PNP standard at 50 μM, and add 1 ml 20% TCA. Whirlimix both tubes and leave for approx 5 min to allow the protein to precipitate. • Centrifuge both tubes for approx 5 min in an instrument set at 3500 rpm. Remove 1 ml of supernatant and place into clean test tubes, discard the remainder. • Add 1 ml 10M NaOH to the supernatant, whirlimix, and leave to stand for approx min. Blank spectrophotometer with distilled water at 400 nm then measure absorbance of the PNP standard against distilled water. The microsomal 4-nitroanisole O-demethylase activity is calculated as follows: Calculation of Results
(§9) [formula] • The activity value from the incubation MUST be equal to or greater than 85% of the mean value of the batch used for the incubation to be valid. If this criteria is not met, then the incubation must be repeated. 11. Analyse samples (including no cofactor and no substrate control) by a specific assay for the substrate to determine the disappearance kinetics. Analysis Of Data […]

human MC3 receptor = biological target: T1, human MC3 receptor (Homo sapiens, UniProt P41968); assay: In vitro agonist potency (EC50) against melanocortin receptor type 3, cAMP in recombinant cell line; type: cell-based; settings: cell line stably transfected with human MC3, 1 hour at 37° C.
T1 construct: stably transfected with full length cDNA encoding human MC1 or MC3 receptors; expressed in transfected cells; host or cells: Chinese hamster ovary cell line (MC3; 'respectively')
T1 sequence (P41968 whole entry): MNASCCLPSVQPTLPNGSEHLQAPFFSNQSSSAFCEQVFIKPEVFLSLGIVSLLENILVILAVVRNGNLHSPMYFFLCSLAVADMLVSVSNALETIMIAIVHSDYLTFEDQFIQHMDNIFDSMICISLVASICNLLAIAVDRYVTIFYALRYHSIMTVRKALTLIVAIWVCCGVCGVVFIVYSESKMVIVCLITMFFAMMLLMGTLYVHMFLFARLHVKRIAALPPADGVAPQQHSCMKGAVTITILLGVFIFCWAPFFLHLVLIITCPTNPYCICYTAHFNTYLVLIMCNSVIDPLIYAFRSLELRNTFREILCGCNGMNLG
Description: Measurement of In Vitro Agonist Potency (EC50) of Compounds Against Melanocortin Receptors Type 1 and 3 (MC1 and MC3).
Activation of melanocortin (MC) receptors by agonists results in activation of intracellular adenylate cyclase enzymes that synthesise the second messenger signalling molecule, adenosine 3′,5′-cyclic monophosphate (cAMP). Changes in cAMP levels following treatment of recombinant MC1 and MC3 cell lines with test compound were measured and an MC1 and MC3 potency estimate (EC50) calculated as follows: […]
Human embryonic kidney (HEK) or Chinese hamster ovary cell lines stably transfected with full length cDNA encoding human MC1 or MC3 receptors, respectively, were established using standard molecular biology methods. Test compounds were dissolved in dimethyl sulfoxide (DMSO) at 4 mM. 11 point half log unit increment dilution series of test compound, typically starting at 50 uM were prepared in a buffer comprised of phosphate buffered saline (PBS), 2.5% DMSO and 0.05% pluronic F-127 surfactant. Freshly cultured cells at 80-90% confluence were harvested and re-suspended in Dulbecco's Modified Eagle's Medium (DMEM). Cells (10,000 for MC3, 20,000 for MC1) were added to the test compound dilution series in a 384 well assay plate and incubated for 1 hour at 37° C. The relative cAMP concentration in each well was then measured using a β-galactosidase enzyme fragment complementation method purchased in kit form as the Discoverx cAMP II kit from GE Healthcare/Amersham Biosciences UK. In the case of MC1,3-Isobutyl-1-methylxanthine (IBMX) at a concentration of 750 μM was included in DMEM as the cells were re-suspended for assay. […] Sigmoidal curves were fitted to plots of log10 inhibitor concentration vs percent effect using a custom made software application called SIGHTS and EC50 estimates determined by the software as the concentration of test compound giving an effect half way between the bottom and top assymptopes of the sigmoidal dose response curve. Each experiment included an EC50 determination for alpha melanocyte stimulating hormone, which was used as a standard to track assay consistency and allow fair comparison between EC50 estimates obtained in different experiments.

[2] = In vitro metabolism rate determination, rat liver microsome (RLM) assay; type: in vitro ADME; settings: rat liver microsomes, substrate 1 μM; read-out: RLM (intrinsic clearance)
Text: as §1, §2, §3, §4, §5, §6, §7, §8, §9

CYP3A4 = biological target: T2, CYP3A4 (Homo sapiens, UniProt P08684); assay: High density drug-drug interactions (DDI) 3 μM cocktail screen in human liver microsomes; type: in vitro ADME; settings: 3 uM test compound, pooled human liver microsomes, probe midazolam 2 μM; read-out: % Inhibition of 3A4 metabolism at 3 uM
T2 construct: utilizes human liver microsomes together with isoform-specific clinical drug probes; from tissue; host or cells: human liver microsomes
T2 sequence (P08684 whole entry, canonical isoform): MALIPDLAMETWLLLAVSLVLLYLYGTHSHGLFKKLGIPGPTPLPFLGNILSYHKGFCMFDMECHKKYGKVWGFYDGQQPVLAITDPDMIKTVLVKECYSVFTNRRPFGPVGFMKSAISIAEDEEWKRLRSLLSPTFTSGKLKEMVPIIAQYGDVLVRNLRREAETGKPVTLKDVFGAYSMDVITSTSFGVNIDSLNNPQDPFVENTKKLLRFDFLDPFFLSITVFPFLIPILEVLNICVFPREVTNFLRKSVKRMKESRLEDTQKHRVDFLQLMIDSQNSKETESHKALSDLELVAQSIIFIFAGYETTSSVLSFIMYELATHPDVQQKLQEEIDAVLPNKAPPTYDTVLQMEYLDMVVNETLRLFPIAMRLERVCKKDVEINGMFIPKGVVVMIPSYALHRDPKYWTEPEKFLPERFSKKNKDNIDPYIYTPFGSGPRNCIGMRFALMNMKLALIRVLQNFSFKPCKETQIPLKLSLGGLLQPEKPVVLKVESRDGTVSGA
Description: High Density Drug-Drug Interactions (DDI) 3 μM Cocktail Screen
A drug interaction is a situation in which a substance affects the activity of another drug, i.e. the effects are increased or decreased, or together they produce a new effect that neither produces on its own. Drug interactions may be the result of various processes but a relatively common one is where one drug affects the pharmacokinetics of another by inhibiting the cytochrome P450 that metabolises it. Because of the importance of these phenomena, assessment of the DDI potential for new chemical entities (NCEs) is considered important early on in the drug discovery process.
The DDI cocktail screen in human liver microsomes (HLM) is run in a fully automated fashion and the aim of the screen is to provide a single-point assessment of the DDI potential of new chemical entity (NCE; tested at 3 μM) against the 4 primary cytochrome P450 enzymes, 1A2, 2D6, 2C9 and 3A4.
The substrate cocktail approach for P450 DDI utilizes human liver microsomes together with isoform-specific clinical drug probes and permits the simultaneous measurement of the inhibition of P450 1A2, 2C9, 2D6 & 3A4 activities in a single incubation. This is run in high throughput with simultaneous detection of metabolites by LC-MS/MS. This method has been thoroughly tested and evaluated using standard compounds.
Appearance of the metabolite of each substrate is measured over time in the presence and absence of the NCE (test compound/inhibitor) at a concentration of 3 μM. The compounds are assessed for their inhibitory potential as a percentage value and interpreted using the following scheme.

MC4 receptor = MC4 receptor (Homo sapiens, UniProt P32245); assay: MC4 functional agonist potency (EC50), assay protocol E of US2005/0176772 / WO 2005/077935; type: cell-based; settings: functional potency at the MC4 receptor
Sequence of MC4 receptor (P32245 whole entry): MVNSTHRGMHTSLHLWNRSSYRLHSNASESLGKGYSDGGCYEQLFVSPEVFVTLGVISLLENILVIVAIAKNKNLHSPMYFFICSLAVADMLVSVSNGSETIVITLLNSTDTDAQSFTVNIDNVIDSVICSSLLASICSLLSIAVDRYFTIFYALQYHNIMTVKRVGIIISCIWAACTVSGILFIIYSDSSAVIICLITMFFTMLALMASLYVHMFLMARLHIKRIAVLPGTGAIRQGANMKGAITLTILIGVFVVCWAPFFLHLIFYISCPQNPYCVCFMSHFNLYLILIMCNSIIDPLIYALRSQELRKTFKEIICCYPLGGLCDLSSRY
Description: The compounds of formula (I) of the present invention have utility as MCR4 agonists in the treatment of various disease states.
MC5 and MC4 EC50 activity was determined as described by assay protocols D and E, respectively, in US2005/0176772 (pages 28-30).

MC4 receptor (MC4R) = biological target: T3, MC4 receptor (MC4R) (Homo sapiens, UniProt P32245); assay: AGRP inhibition: competition binding vs [125I]AGRP(87-132) at CHO-CRE MC4R cell membranes; settings: vs 0.3 nM [125I]AGRP(87-132)
T3 construct: expressed in transfected cells; host or cells: CHO-CRE MC4R cells (membranes)
T3 sequence (P32245 whole entry): as above
Text: Agouti related protein (AGRP) is a high affinity endogenous antagonist/inverse agonist for the MC4 receptor (Lu et al., 1994, Nature 371: 799-802; Oilman et al., 1997, Science 278: 135-138). […] It has been ascertained that this C-terminal fragment of AGRP contains the MC4R binding determinants (Yang et al., 1999, Mol Endocrinol 13: 148-155), therefore, compounds can be evaluated for their ability to inhibit AGRP binding to membranes from cells expressing the MC4R using a competition binding assay versus [^125I]AGRP(87-132). To this end cells expressing the MC4R were subject to homogenisation and the membrane fragment isolated by differential centrifugation. CHO-CRE MC4R cell membranes (12 μg protein) were incubated with 0.3 nM [^125I]AGRP(87-132) and 11 half-log concentrations of competitor ligand, in duplicate, in a total volume of 100 μl buffer (25 mM HEPES, 1 mM MgCl2, 2.5 mM CaCl2, 0.5% BSA pH 7.0). Non-specific binding was determined by the inclusion of 1 μM SHU9119. The reaction was initiated by the addition of membranes and plates were incubated at room temperature for 2 hours. The reaction was terminated by rapid filtration onto GF/C filters (presoaked in 1% PEI) using a vacuum harvester followed by five 200 μl washes of ice cold wash buffer (Binding buffer containing 500 mM NaCl). The filters were soaked in 50 μl scintillation fluid and the amount of radioactivity present was determined by liquid scintillation counting. Ki values were determined by data analysis using appropriate software.

SMILES | microsomal CLint at 1 μM [1] [µL/min/mg] | EC50 (human MC3 receptor) [nM] | microsomal CLint at 1 μM [2] [µL/min/mg] | inhibition at 3 μM (CYP3A4) [%] | EC50 (MC4 receptor) [nM] | Ki (MC4 receptor (MC4R)) [nM]
C[C@@H]1CN(C(=O)[C@@H]2CN(c3ccc(Cl)nn3)C[C@H]2c2ccc(Cl)cn2)C[C@H](C)[C@@]1(O)c1ccc(F)cc1 [Example 3, (3R,4R,5S)-1-{[(3S,4S)-1-(6-Chloropyridazin-3-yl)-4-(5-chloropyridin-2-yl)pyrrolidin-3-yl]carbonyl}-4-(4-fluorophenyl)-3,5-dimethylpiperidin-4-ol] | < 7 | 16.4 | < 19.8 | 60 | 11.9 | –
COc1ccc([C@@H]2CN(c3cccnn3)C[C@H]2C(=O)N2C[C@@H](C)[C@](O)(c3ccc(F)cc3)[C@@H](C)C2)cn1 [Example 11] | 14 | – | – | – | 111 | 417
COc1ccc(C2CN(c3cccnn3)CC2C(=O)N2CC(C)C(O)(c3ccccc3)C(C)C2)cn1 (stereo not drawn) [Example 12] | > 352 | – | 88.5 | – | 91.6 | –
COc1ccc([C@@H]2CN(c3cncc(F)c3)C[C@H]2C(=O)N2C[C@@H](C)[C@](O)(c3ccc(F)cc3)[C@@H](C)C2)cn1 [Example 13] | – | 1020 | – | 6 | 37.6 | 106
COc1ccc([C@@H]2CN(c3ccc(C#N)cn3)C[C@H]2C(=O)N2C[C@@H](C)[C@](O)(c3ccc(F)cc3)[C@@H](C)C2)cn1 [Example 14] | < 9 | 129 | < 9.75 | – | 115 | –
COc1ccc(C2CN(c3cncc(C#N)c3)CC2C(=O)N2CC(C)C(O)(c3ccc(F)cc3)C(C)C2)cn1 (stereo not drawn) [Example 15] | – | > 33400 | – | – | 53.9 | –
C[C@@H]1CN(C(=O)[C@@H]2CN(c3ccc(C#N)nn3)C[C@H]2c2ccc(Cl)cn2)C[C@H](C)[C@@]1(O)c1ccccc1 [Example 29] | 105 | – | 36 | 59 | 7.54 | 40
C[C@@H]1CN(C(=O)[C@@H]2CN(c3ccc(C#N)nn3)C[C@H]2c2ccc(F)cn2)C[C@H](C)[C@@]1(O)c1ccc(F)cc1 [Example 34] | < 7 | – | < 8.5 | 50 | 39.2 | 375
C[C@@H]1CN(C(=O)[C@@H]2CN(c3ccc(Cl)nn3)C[C@H]2c2ccc(F)cn2)C[C@H](C)[C@@]1(O)c1ccc(F)cc1 [Example 36] | < 7 | – | 17 | 59 | 168 | 1020
C[C@@H]1CN(C(=O)[C@@H]2CN(c3ccc(=O)[nH]n3)C[C@H]2c2ccc(F)cn2)C[C@H](C)[C@@]1(O)c1ccc(F)cc1 [Example 38] | < 7 | – | < 8.5 | 58 | 102 | 336
COc1ccc([C@@H]2CN(c3ccc(Cl)nn3)C[C@H]2C(=O)N2C[C@@H](C)[C@](O)(c3ccc(F)cc3)[C@@H](C)C2)nc1 [Example 44] | – | > 9630 | – | 27 | 284 | 2130
